Results as given in BindingDB's records for doi:10.1016/j.bmc.2020.115544 (Duquesne University, 2020).

How the values were obtained:
[1] = Inhibition of GARFTase in human KB cells expressing RFC/FRalpha/PCFT assessed as reduction in cell growth after 96 hrs by Cell-Titer Blue assay
[2] = Inhibition of GARFTase in human KB cells expressing RFC/FRalpha/PCFT assessed as reduction in cell growth after 96 hrs in presence of folic acid by Cell-Titer Blue assay

| IC50 [1] | IC50 [2] | SMILES |
| --- | --- | --- |
| 0.95 nM | > 1000 nM | Nc1nc2[nH]c(CCCNc3ccc(C(=O)N[C@@H](CCC(=O)O)C(=O)O)cc3)cc2c(=O)[nH]1 |
| 2.5 nM | > 1000 nM | Nc1nc2[nH]c(CCCOc3ccc(C(=O)N[C@@H](CCC(=O)O)C(=O)O)cc3)cc2c(=O)[nH]1 |
| 0.3 nM | 757 nM | Nc1nc2[nH]c(CCCSc3ccc(C(=O)N[C@@H](CCC(=O)O)C(=O)O)cc3)cc2c(=O)[nH]1 |
| 13 nM | > 1000 nM | Nc1nc2[nH]c(CCCN(C=O)c3ccc(C(=O)N[C@@H](CCC(=O)O)C(=O)O)cc3)cc2c(=O)[nH]1 |
| 5.4 nM | > 1000 nM | Nc1nc2[nH]c(CCCN(C(=O)C(F)(F)F)c3ccc(C(=O)N[C@@H](CCC(=O)O)C(=O)O)cc3)cc2c(=O)[nH]1 |
| 40 nM | > 1000 nM | CC(=O)N(CCCc1cc2c(=O)[nH]c(N)nc2[nH]1)c1ccc(C(=O)N[C@@H](CCC(=O)O)C(=O)O)cc1 |

| SMILES | IC50 [1] | IC50 [2] |
| --- | --- | --- |
| Nc1nc2[nH]c(CCNc3ccc(C(=O)N[C@@H](CCC(=O)O)C(=O)O)cc3)cc2c(=O)[nH]1 | 0.32 nM | 666 nM |
